Measurements taken from patent US10570179B2, “Substituted urea depsipeptide analogs as activators of the CLPP endopeptidase” (priority 2016, dated 2020).
Numbered stars: 1 amine (or outer) side, 2 acyl side, 3 side chain; on linkers, the order of the positions; unused ones are H or OH. Bridge positions count the residues as written; N and C are the ends. Square brackets hold non-standard residues; d marks the D form. Peptide text beside a SMILES is read from it. * marks the point of attachment. X5 = O=C([C@@H]1C[C@@H](OP(=O)(O)O)CN1[*:1])[*:2]; Piperazine(2S-CO,4-Me) = CN1CCN[C@H](C(=O)O)C1; Phe(3-Cl) = N[C@@H](Cc1cccc(Cl)c1)C(=O)O; Morpholine(3S-CO) = O=C(O)[C@@H]1COCCN1; Phe(3-Me) = Cc1cccc(C[C@H](N)C(=O)O)c1; NH(4-Cl-2-F-phenyl) = Fc1cc(Cl)ccc1N*; Pro(4R-Me) = C[C@H]1CN[C@H](C(=O)O)C1; Hyp = O=C(O)[C@@H]1C[C@@H](O)CN1; NH(4-Et-phenyl) = CCc1ccc(N*)cc1; NH(4-Me-phenyl) = Cc1ccc(N*)cc1; aThr = C[C@H](O)[C@H](N)C(=O)O; Pip = O=C(O)[C@@H]1CCCCN1; X3 = c1cc2c(cc1N*)OCCO2; CO = O=C([*:1])[*:2]

Key:
S. aureus ClpP (Sa-ClpP) = target: T1, S. aureus ClpP (Sa-ClpP) (Staphylococcus aureus, UniProt Q2G036); assay: Casein-BODIPY digestion assay (ClpP activation); assay type: biochemical
T1 construct: made in house; host or cells: E. coli BL21 (DE3)

[1] = Microsomal metabolic stability; assay type: in vitro ADME, mouse
In short: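 CD-1 mouse liver microsomes (0.6381 mg/mL protein microsomal solution, 0.1 M potassium phosphate pH 7.4 with EDTA) were incubated with compound and an NADPH-regenerating system at 37 °C, in triplicate. Acetonitrile/warfarin quench at 0, 15, 30, 60, 120 and 240 min, then LCMS. Half-life came from a first-order least-squares fit.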

[2] = microsomal metabolic stability half-life, mouse liver microsomes

T1 sequence (Q2G036 whole entry): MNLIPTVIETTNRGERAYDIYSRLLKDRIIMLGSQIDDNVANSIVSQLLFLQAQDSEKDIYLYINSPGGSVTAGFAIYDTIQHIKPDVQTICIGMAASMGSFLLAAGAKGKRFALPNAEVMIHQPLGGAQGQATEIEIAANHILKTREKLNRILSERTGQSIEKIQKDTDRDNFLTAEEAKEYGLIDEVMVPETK

SMILES | EC50 (S. aureus ClpP (Sa-ClpP)) | Mouse ([1]; CD-1, mouse, pH 7.4) | Mouse [1, 2]
CCc1ccc(NC(=O)N[C@@H](Cc2cccc(C)c2)C(=O)N[C@@H]2C(=O)N3C[C@H](O)C[C@H]3C(=O)N3CCOC[C@H]3C(=O)N[C@@H](C)C(=O)N3C[C@H](C)C[C@H]3C(=O)O[C@H]2C)cc1 [Compound 24, (S)-2-(3-(4-ETHYLPHENYL)UREIDO)-N-((6AS,8R,12S,13S,15AS,17R,21S,23AS)-8-HYDROXY-13,17,21-TRIMETHYL-6,11,15,20,23-PENTAOXOOCTADECAHYDRO-6H,11H,15H-[1,4]OXAZINO[3,4-I]DIPYRROLO[2,1-C:2′,1′-L][1]OXA[4,7,10,13]TETRAAZACYCLOHEXADECIN-12-YL)-3-(M-TOLYL)PROPANAMIDE] ({NH(4-Et-phenyl)-CO}-[Phe(3-Me)][aThr][Hyp][Morpholine(3S-CO)]A[Pro(4R-Me)]; ester 2-C) | 130 ± 40 nM | 1.03 ± 0.05 h | 
CCc1ccc(NC(=O)N[C@@H](Cc2cccc(C)c2)C(=O)N[C@@H]2C(=O)N3C[C@H](O)C[C@H]3C(=O)N3CCCC[C@H]3C(=O)N[C@@H](C)C(=O)N3C[C@H](C)C[C@H]3C(=O)O[C@H]2C)cc1 [Compound 25, (S)-2-(3-(4-ETHYLPHENYL)UREIDO)-N-((2R,6S,8AS,14AS,16R,20S,21S,23AS)-16-HYDROXY-2,6,21-TRIMETHYL-5,8,14,19,23-PENTAOXOOCTADECAHYDRO-1H,5H,14H,19H-PYRIDO[2,1-I]DIPYRROLO[2,1-C:2′,1′-L][1]OXA[4,7,10,13]TETRAAZACYCLOHEXADECIN-20-YL)-3-(M-TOLYL)PROPANAMIDE] ({NH(4-Et-phenyl)-CO}-[Phe(3-Me)][aThr][Hyp][Pip]A[Pro(4R-Me)]; ester 2-C) | 410 ± 20 nM | 2.35 ± 0.27 h | 
Cc1ccc(NC(=O)N[C@@H](Cc2cccc(C)c2)C(=O)N[C@@H]2C(=O)N3C[C@H](O)C[C@H]3C(=O)N3CCCC[C@H]3C(=O)N[C@@H](C)C(=O)N3C[C@H](C)C[C@H]3C(=O)O[C@H]2C)cc1 [Compound 26, (S)—N-((2R,6S,8AS,14AS,16R,20S,21S,23AS)-16-HYDROXY-2,6,21-TRIMETHYL-5,8,14,19,23-PENTAOXOOCTADECAHYDRO-1H,5H,14H,19H-PYRIDO[2,1-I]DIPYRROLO[2,1-C:2′,1′-L][1]OXA[4,7,10,13]TETRAAZACYCLOHEXADECIN-20-YL)-3-(M-TOLYL)-2-(3-(P-TOLYL)UREIDO)PROPANAMIDE] ({NH(4-Me-phenyl)-CO}-[Phe(3-Me)][aThr][Hyp][Pip]A[Pro(4R-Me)]; ester 2-C) | 650 ± 90 nM |  | 2.49 ± 0.35 h
Cc1cccc(C[C@H](NC(=O)Nc2ccc3c(c2)OCCO3)C(=O)N[C@@H]2C(=O)N3C[C@H](O)C[C@H]3C(=O)N3CCOC[C@H]3C(=O)N[C@@H](C)C(=O)N3C[C@H](C)C[C@H]3C(=O)O[C@H]2C)c1 [Compound 27, (S)-2-(3-(2,3-DIHYDROBENZO[B][1,4]DIOXIN-6-YL)UREIDO)-N-((6AS,8R,12S,13S,15AS,17R,21S,23AS)-8-HYDROXY-13,17,21-TRIMETHYL-6,11,15,20,23-PENTAOXOOCTADECAHYDRO-6H,11H,15H-[1,4]OXAZINO[3,4-I]DIPYRROLO[2,1-C:2′,1′-L][1]OXA[4,7,10,13]TETRAAZACYCLOHEXADECIN-12-YL)-3-(M-TOLYL)PROPANAMIDE] ({X3-CO}-[Phe(3-Me)][aThr][Hyp][Morpholine(3S-CO)]A[Pro(4R-Me)]; ester 2-C) | 1200 ± 100 nM | 0.79 ± .795 h | 
Cc1cccc(C[C@H](NC(=O)Nc2ccc3c(c2)OCCO3)C(=O)N[C@@H]2C(=O)N3C[C@H](O)C[C@H]3C(=O)N3CCCC[C@H]3C(=O)N[C@@H](C)C(=O)N3C[C@H](C)C[C@H]3C(=O)O[C@H]2C)c1 [Compound 28, (S)-2-(3-(2,3-DIHYDROBENZO[B][1,4]DIOXIN-6-YL)UREIDO)-N-((2R,6S,8AS,14AS,16R,20S,21S,23AS)-16-HYDROXY-2,6,21-TRIMETHYL-5,8,14,19,23-PENTAOXOOCTADECAHYDRO-1H,5H,14H,19H-PYRIDO[2,1-I]DIPYRROLO[2,1-C:2′,1′-L][1]OXA[4,7,10,13]TETRAAZACYCLOHEXADECIN-20-YL)-3-(M-TOLYL)PROPANAMIDE] ({X3-CO}-[Phe(3-Me)][aThr][Hyp][Pip]A[Pro(4R-Me)]; ester 2-C) | 910 ± 80 nM | 0.79 ± .795 h | 
Cc1cccc(C[C@H](NC(=O)Nc2ccc(Cl)cc2F)C(=O)N[C@@H]2C(=O)N3C[C@H](OP(=O)(O)O)C[C@H]3C(=O)N3CCCC[C@H]3C(=O)N[C@@H](C)C(=O)N3C[C@H](C)C[C@H]3C(=O)O[C@H]2C)c1 [Compound 29, (2R,6S,8AS,14AS,16R,20S,21S,23AS)-20-((S)-2-(3-(4-CHLORO-2-FLUOROPHENYL)UREIDO)-3-(M-TOLYL)PROPANAMIDO)-2,6,21-TRIMETHYL-5,8,14,19,23-PENTAOXOOCTADECAHYDRO-1H,5H,14H,19H-PYRIDO[2,1-I]DIPYRROLO[2,1-C:2′,1′-L][1]OXA[4,7,10,13]TETRAAZACYCLOHEXADECIN-16-YL DIHYDROGEN PHOSPHATE] ({NH(4-Cl-2-F-phenyl)-CO}-[Phe(3-Me)][aThr][X5][Pip]A[Pro(4R-Me)]; ester 2-C) | 240 ± 240 nM |  | >4 h
Cc1ccc(NC(=O)N[C@@H](Cc2cccc(C)c2)C(=O)N[C@@H]2C(=O)N3C[C@H](O)C[C@H]3C(=O)N3CCN(C)C[C@H]3C(=O)N[C@@H](C)C(=O)N3C[C@H](C)C[C@H]3C(=O)O[C@H]2C)cc1 [Compound 30, (S)—N-((6AS,8R,12S,13S,15AS,17R,21S,23AS)-8-HYDROXY-2,13,17,21-TETRAMETHYL-6,11,15,20,23-PENTAOXOOCTADECAHYDRO-2H,6H,11H,15H-PYRAZINO[2,1-I]DIPYRROLO[2,1-C:2′,1′-L][1]OXA[4,7,10,13]TETRAAZACYCLOHEXADECIN-12-YL)-3-(M-TOLYL)-2-(3-(P-TOLYL)UREIDO)PROPANAMIDE] ({NH(4-Me-phenyl)-CO}-[Phe(3-Me)][aThr][Hyp][Piperazine(2S-CO,4-Me)]A[Pro(4R-Me)]; ester 2-C) | 290 ± 290 nM |  | 6.21 ± .215 h
Cc1cccc(C[C@H](NC(=O)Nc2ccc(Cl)cc2F)C(=O)N[C@@H]2C(=O)N3C[C@H](O)C[C@H]3C(=O)N3CCN(C)C[C@H]3C(=O)N[C@@H](C)C(=O)N3C[C@H](C)C[C@H]3C(=O)O[C@H]2C)c1 [Compound 31, (S)-2-(3-(4-CHLORO-2-FLUOROPHENYL)UREIDO)-N-((6AS,8R,12S,13S,15AS,17R,21S,23AS)-8-HYDROXY-2,13,17,21-TETRAMETHYL-6,11,15,20,23-PENTAOXOOCTADECAHYDRO-2H,6H,11H,15H-PYRAZINO[2,1-I]DIPYRROLO[2,1-C:2′,1′-L][1]OXA[4,7,10,13]TETRAAZACYCLOHEXADECIN-12-YL)-3-(M-TOLYL)PROPANAMIDE] ({NH(4-Cl-2-F-phenyl)-CO}-[Phe(3-Me)][aThr][Hyp][Piperazine(2S-CO,4-Me)]A[Pro(4R-Me)]; ester 2-C) | 180 ± 180 nM | 2.65 ± .655 h | 
C[C@@H]1C[C@H]2C(=O)O[C@@H](C)[C@H](NC(=O)[C@H](Cc3cccc(Cl)c3)NC(=O)Nc3ccc(Cl)cc3F)C(=O)N3CCC[C@H]3C(=O)N3CCN(C)C[C@H]3C(=O)N[C@@H](C)C(=O)N2C1 [Compound 33] ({NH(4-Cl-2-F-phenyl)-CO}-[Phe(3-Cl)][aThr]P[Piperazine(2S-CO,4-Me)]A[Pro(4R-Me)]; ester 2-C) | 200 ± 200 nM | 0.80 ± .805 h | 
